Assay results from US20090163540A1, “Quinine Sulfate Polymorphs, Processes of Preparing, Compositions and Uses Thereof” (priority 2007, published 2009).
Counter-ions that a name gives are not always drawn.

What was measured:
[1] = Moisture balance (moisture sorption/desorption, 5% to 95% RH) with post-MB XRPD; type: physicochemical
Method: In addition to XRPD, quinine sulfate polymorph A is analyzed by DSC, TGA, moisture balance (MB), post-MB XRPD, hotstage microscopy (HSM), Karl Fischer (KF) and variable temperature X-ray powder diffraction (VT-XRPD); a summary of the analyses is provided in Table 11b. Moisture sorption/desorption data are collected on a VTI SGA-100 Vapor Sorption Analyzer. Sorption and desorption data are collected over a range of 5% to 95% relative humidity (RH) at 10% RH intervals. Samples are not dried prior to analysis. Equilibrium criteria used for analysis are less than 0.0100% weight change in 5 minutes, with a maximum equilibration time of 3 hours if the weight criterion is not met. Data are not corrected for the initial moisture content of the samples. Sodium chloride and polyvinylpyrrolidone are used as calibration standards.

[2] = Variable-temperature XRPD (solid form on heating); type: physicochemical
Method: In addition to XRPD, quinine sulfate polymorph A is analyzed by DSC, TGA, moisture balance (MB), post-MB XRPD, hotstage microscopy (HSM), Karl Fischer (KF) and variable temperature X-ray powder diffraction (VT-XRPD); a summary of the analyses is provided in Table 11b. Variable-temperature XRPD is performed on a Shimadzu XRD-6000 X-ray powder diffractometer equipped with an Anton Paar HTK 1200 high temperature stage. The sample is packed in a ceramic holder and analyzed from 2.5 to 40 °2θ at 3°/min (0.4 sec/0.02° step). A silicon standard is analyzed to check the instrument alignment. Temperature calibration is performed using vanillin and sulfapyridine standards. Data are collected and analyzed using XRD-6000 v. 4.1.

Question: Which results are given for `C=C[C@H]1C[N@@]2CC[C@H]1C[C@H]2[C@H](O)c1ccnc2ccc(OC)cc12` [Form A, quinine sulfate]?
Answer: post-MB XRPD form ([1]; solid form after moisture balance): Form A; MB (moisture balance) result ([1]; sorption/desorption 5% to 95% RH at 10% RH intervals): non-hygroscopic; VT-XRPD form ([2]; 40° C. (listed after 110° C.)): 40° C.: Form A; VT-XRPD form ([2]; 50° C.): 50° C.: Form A; VT-XRPD form ([2]; 75° C.): 75° C.: Form A; VT-XRPD form ([2]; 110° C.): 110° C.: Pattern D; VT-XRPD form ([2]; ambient temp): ambient temp: Form A
